Data published in PMC10571041, “Activity of Single Insect Olfactory Receptors Triggered by Airborne Compounds Recorded in Self-Assembled Tethered Lipid Bilayer Nanoarchitectures” (ACS Applied Materials & Interfaces, 2023).

Target: T1, EcorOBP15-m1 (odorant binding protein) (Eupeodes corollae, UniProt A0A8F9RZG6, F82L)
T1 construct: recombinant protein expressed in E. coli
T1 sequence (A0A8F9RZG6 22-145 F82L): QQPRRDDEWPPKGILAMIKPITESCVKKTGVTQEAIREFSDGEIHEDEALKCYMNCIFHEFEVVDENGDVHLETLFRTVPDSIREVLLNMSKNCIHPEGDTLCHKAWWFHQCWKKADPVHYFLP
Assay: competitive fluorescence displacement of 1-NPN

Q: CCCCCC(=O)OCC [ethyl hexanoate] was tested. Which Kd did it give?
A: 7.4 µM
